Reference: patent publication US5750724A, “Indolealkyl derivatives of benzodioxanmethylamine” (American Home Products Corporation, priority 1996, dated 1998)

Assays:
5-HT1A receptors = conditions: European Journal of Pharmacology, 173 (1989), 189; cited from earlier work
dopamine D2 receptor = biological target: T1, dopamine D2 receptor (Rattus norvegicus, UniProt P61169); assay: dopamine D2 receptor affinity, 3H-quinpirole, homogenized rat striatal brain tissue (modified Seemen and Schaus); type: binding
T1 construct: homogenized rat striatal brain tissue; from tissue; host or cells: rat striatum homogenate
T1 sequence (P61169 whole entry): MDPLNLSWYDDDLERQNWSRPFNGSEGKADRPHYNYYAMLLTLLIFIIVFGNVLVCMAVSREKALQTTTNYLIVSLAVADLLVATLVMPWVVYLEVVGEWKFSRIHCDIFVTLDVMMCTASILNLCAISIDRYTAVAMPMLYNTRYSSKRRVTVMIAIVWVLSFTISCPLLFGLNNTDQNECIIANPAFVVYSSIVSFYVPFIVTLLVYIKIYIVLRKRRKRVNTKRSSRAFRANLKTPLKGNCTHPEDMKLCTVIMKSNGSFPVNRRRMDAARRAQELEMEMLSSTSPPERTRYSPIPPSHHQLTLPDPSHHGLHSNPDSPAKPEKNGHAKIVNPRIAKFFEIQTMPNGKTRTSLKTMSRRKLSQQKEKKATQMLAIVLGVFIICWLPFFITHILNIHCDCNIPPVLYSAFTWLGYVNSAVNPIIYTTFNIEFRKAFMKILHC
Procedure: Affinity for the dopamine D2 receptor was established by a modification of the standard experimental test procedure of Seemen and Schaus, European Journal of Pharmacology 203: 105-109, 1991, wherein homogenized rat striatal brain tissue is incubated with ^3 H-quinpirole and various concentrations of test compound, filtered and washed and counted in a Betaplate scintillation counter.

[1] = biological target: T2, 5-HT1A serotonin receptor (Rattus norvegicus, UniProt P19327); assay: displacement of [3H] 8-OHDPAT (dipropylaminotetralin) from the 5-HT1A serotonin receptor (Hall et al.); type: binding; conditions: read-out: 5-HT1A Receptor Affinity IC50
T2 construct: following the procedure of Hall et al., J. Neurochem; 44, 1685 (1985); from tissue
T2 sequence (P19327 1-422): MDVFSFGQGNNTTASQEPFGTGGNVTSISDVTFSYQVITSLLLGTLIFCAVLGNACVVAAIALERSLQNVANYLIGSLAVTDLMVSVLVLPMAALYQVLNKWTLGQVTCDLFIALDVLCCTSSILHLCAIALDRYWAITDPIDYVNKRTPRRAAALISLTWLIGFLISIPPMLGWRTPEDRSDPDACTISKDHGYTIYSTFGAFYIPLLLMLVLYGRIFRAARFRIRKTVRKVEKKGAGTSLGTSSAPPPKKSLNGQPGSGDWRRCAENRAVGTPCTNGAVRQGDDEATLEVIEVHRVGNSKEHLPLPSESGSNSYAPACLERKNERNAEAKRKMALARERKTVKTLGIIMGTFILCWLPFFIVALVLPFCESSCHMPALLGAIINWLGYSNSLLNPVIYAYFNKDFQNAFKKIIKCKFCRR
Description: High affinity for the serotonin 5-HT1A receptor was established by testing the claimed compound's ability to displace [^3 H] 8-OHDPAT (dipropylaminotetralin) from the ^5 -HT1A serotonin receptor following the procedure of Hall et al., J. Neurochem. 44, 1685 (1985). […] The anxiolytic and antidepressant activity of these agents are believed to be, at least partially, due to their 5-HT1A receptor affinity (Vander Maclen et al., Eur. J. Pharmacol. 1986, 129 (1-2) […] and Lucki, J. Clin. Psychiat. 1992, 52, 24-31).

[2] = test system: 3H 5-hydroxytryptamine uptake; assay: inhibition of 3H 5-hydroxytryptamine uptake, crude synaptosomes from rat frontal cortex (modified Wood and Willie); type: biochemical; conditions: nonspecific uptake in presence of 10 μM fluoxetine, read-out: Inhibition 5-HT Uptake IC50
Procedure: Inhibition of ^3 H 5-hydroxytryptamine uptake was established using a modification of the procedure of Wood and Willie, J. Neurochem. 37:795, 1981. Crude synaptosomes prepared from rat frontal cortex were utilized and nonspecific uptake was defined as that occurring in the presence of excess (10 μM) fluoxetine.

[3] = biological target: T2, 5-HT1A serotonin receptor; conditions: reference agents; cited from earlier work
[4] = cited from earlier work

IC50 (dopamine D2 receptor) [nM] | IC50 [1] [nM] | Compound | also measured
– | – | COc1ccc2[nH]cc(CCNCC3COc4ccccc4O3)c2c1 (centres unmarked) | partial agonist activity at 5-HT1A receptors (in words) (5-HT1A receptors): partial agonist activity at 5-HT1A receptors
116 | 5.6 | c1ccc2c(CCCCNC[C@H]3COc4cc5c(cc4O3)OCO5)c[nH]c2c1 [Example 1, [(6,7-Dihydro-1,3-dioxolo[4,5-g][1,4]benzodioxin-6-yl)methyl]-[4-(1H-indol-3-yl)-butyl]-amine] | –
82 | 5.7 | COc1ccc2c(c1)O[C@@H](CNCCCCc1c[nH]c3ccccc13)CO2 [Example 2, [4-(1H-Indol-3-yl)-butyl]-(7-methoxy-2,3-dihydro-benzo[1,4]dioxin-2-ylmethyl)amine] | –
1.3 | 6 | Oc1ccc2c(c1)OC(CNCCCCc1c[nH]c3ccccc13)CO2 (centres unmarked) [Example 3, 3-{[4-(1H-Indol-3-yl)-butylamino}-methyl}-2,3-dihydro-benzo[1,4]dioxin-6-ol] | –
102 | 8.05 | c1ccc(COc2ccc3[nH]cc(CCCNCC4COc5ccccc5O4)c3c2)cc1 (centres unmarked) [Example 4, [3-(5-Benzyloxy-1H-indol-3-yl)-propyl]-(2,3-dihydro-benzo[1,4]dioxin-2-ylmethyl)-amine] | –
45 | 2.7 | COc1ccc2c(c1)OC(CNCCCc1c[nH]c3ccc(O)cc13)CO2 (centres unmarked) [Example 6, 3-{3-[(7-Methoxy-2,3-dihydro-benzo[1,4]dioxin-2-ylmethyl)-amino]-propyl}-1H-indol-5-ol] | –
1230 | 6.74 | COc1ccc2c(c1)OC(CN(C)CCCc1c[nH]c3ccc(OC)cc13)CO2 (centres unmarked) [Example 7, (7-Methoxy-2,3-dihydro-benzo[1,4]dioxin-2-ylmethyl)-[3-(5-methoxy-1H-indol-3-yl)-propyl]-methyl-amine] | –
0.61 | 0.35 | Oc1ccc2c(c1)OC(CNCCCc1c[nH]c3ccc(O)cc13)CO2 (centres unmarked) [Example 8, 3-{3-[(7-Hydroxy-2,3-dihydro-benzo[1,4]dioxin-2-ylmethyl)-amino]-propyl}-1H-indol-5-ol] | –
0.39 | 1.94 | COc1ccc2[nH]cc(CCCCNCC3COc4ccc(O)cc4O3)c2c1 (centres unmarked) [Example 10, 3-{[4-(5-Methoxy-1H-indol-3-yl)-butylamino]methyl}-2,3-dihydrobenzo[1,4]dioxin-6-ol] | –
4.75 | 0.81 | COc1ccc2[nH]cc(CCCCNCC3COc4ccc(NS(C)(=O)=O)cc4O3)c2c1 (centres unmarked) [Example 14, N-(3-{[4-(5-Methoxy-1 H-indol-3-yl)-butylamino]-methyl}-2,3-dihydrobenzo[1,4]dioxin-6-yl)-methanesulfonamide] | –
0.3 | 4.85 | Oc1ccc2c(c1)OC(CNCCCc1c[nH]c3ccccc13)CO2 (centres unmarked) [Example 15, 3-{[4-(1H-Indol-3-yl)-propylamino]-methyl}-2,3-dihydro-benzo[1,4]dioxin-6-ol] | –
13.6 | 4.86 | c1ccc2c(c1)OCC(CNCCCCc1c[nH]c3ccccc13)O2 (centres unmarked) [Example 16, (2,3-Dihydro-benzo[1,4]dioxin-2-ylmethyl)-[4-(1H-indol-3-yl)-butyl]-amine] | –
3.5 | 3.77 | c1ccc2c(c1)OCC(CNCCCc1c[nH]c3ccccc13)O2 (centres unmarked) [Example 17, (2.3-Dihydro-benzo[1,4]dioxin-2-ylmethyl)-[3-(1H-indol-3-yl)-propyl]-amine] | –
18.4 | 3.95 | Fc1ccc2[nH]cc(CCCCNCC3COc4ccccc4O3)c2c1 (centres unmarked) [Example 18, (2,3-Dihydro-benzo[1,4]dioxin-2-ylmethyl)-[4-(5-fluoro-1H-indol-3-yl)-butyl]-amine] | –
72 | 5.5 | COc1ccc2c(c1)OC(CNCCCCc1c[nH]c3ccc(F)cc13)CO2 (centres unmarked) [Example 19, [4-(5-Fluoro-1H-indole-3-yl)-butyl]-(7-methoxy-2,3-dihydro-benzo[1,4]dioxin-2-ylmethyl)-amine] | –
0.13 | 5.9 | Oc1ccc2c(c1)O[C@@H](CNCCCc1c[nH]c3ccccc13)CO2 [Example 20, 3-{[3-(1H-Indol-3-yl)-propylamino]methyl}-2,3-dihydro-benzo[1,4]dioxin-6-ol] | –
0.76 | 5.8 | CS(=O)(=O)Nc1ccc2c(c1)O[C@@H](CNCCCc1c[nH]c3ccccc13)CO2 [Example 21, N-(3-{[3-(1H-Indol-3-yl)-propylamino]methyl}-2,3-dihydro-benzo[1,4]dioxin-6-yl)-methanesulfonamide] | –
49.8 | 16 | Cn1cc(CCCCNCC2COc3ccccc3O2)c2cc(F)ccc21 (centres unmarked) [Example 22, (2,3-Dihydro-benzo[1,4]dioxin-2-ylmethyl)-{4-[5-fluoro-1-methyl-1H-(indole-3-yl)]-butyl}-amine] | –
6.63 | 0.56 | COc1ccc2[nH]cc(CCCCNCC3COc4ccccc4O3)c2c1 (centres unmarked) [Example 23, (2,3-Dihydro-benzo[1,4]dioxin-2-ylmethyl)-[4-(5-methoxy-1H-indol-3-yl)-butyl]-amine] | –
20.4 | 9.29 | Cn1cc(CCCNCC2COc3ccc(NS(C)(=O)=O)cc3O2)c2ccccc21 (centres unmarked) [Example 24, N-(3-{[3-(1-Methyl-1H-indol-3-yl)-propylamino]-methyl}-2,3-dihydrobenzo[1,4]dioxin-6-yl)-methanesulfonamide] | –
– | – | O=C1CC2(CCCC2)CC(=O)N1CCCCN1CCN(c2ncccn2)CC1 [buspirone] | affinity for the 5-HT1A serotonin receptor subtype (in words) [3]: potent affinity
– | – | CNCCC(Oc1ccc(C(F)(F)F)cc1)c1ccccc1 (centres unmarked) [fluoxetine, reference compound] | IC50 [2]: 71 nM
– | – | CC1(C)CC(=O)N(CCCCN2CCN(c3ncccn3)CC2)C(=O)C1 [gepirone] | affinity for the 5-HT1A serotonin receptor subtype (in words) [3]: potent affinity; anxiolytic and antidepressant activity in clinical trials (in words) [4]: demonstrated both anxiolytic and antidepressant activity in clinical trials
– | – | CN(C)CCCN1c2ccccc2CCc2ccccc21 [imipramine, reference compound] | IC50 [2]: 120 nM
– | – | O=C1c2ccccc2S(=O)(=O)N1CCCCN1CCN(c2ncccn2)CC1 [ipsapirone] | affinity for the 5-HT1A serotonin receptor subtype (in words) [3]: potent affinity; anxiolytic and antidepressant activity in clinical trials (in words) [4]: demonstrated both anxiolytic and antidepressant activity in clinical trials
– | – | CN(C)C/C=C(/c1ccc(Br)cc1)c1cccnc1 [zimelidine, reference compound] | IC50 [2]: 240 nM

Compound | IC50 (dopamine D2 receptor) [nM] | IC50 [1] [nM] | also measured
Oc1ccc2[nH]cc(CCCNCC3COc4ccccc4O3)c2c1 (centres unmarked) [Example 5, 3-{3-[(2,3-Dihydro-benzo[1,4]dioxin-2-ylmethyl)-amino]-propyl}-1H-indol-5-o] | 6.5 | 0.06 | IC50 [2]: 52 nM
COc1ccc2c(c1)OC(CNCCCCc1c[nH]c3ccc(OC)cc13)CO2 (centres unmarked) [Example 9, (7-Methoxy-2,3-dihydro-benzo[1,4]dioxin-2-ylmethyl)-[4-(5-methoxy-1 H-indol-3-yl)-butyl]-amine] | 64 | 0.8 | IC50 [2]: 738 nM
CS(=O)(=O)Nc1ccc2c(c1)OC(CNCCCCc1c[nH]c3ccccc13)CO2 (centres unmarked) [Example 11, N-(3-{[4-(1 H-Indol-3-yl)-butylamino]-methyl}-2,3-dihydro-benzo[1,4]dioxin-6-yl)-methanesulfonamide] | 2.37 | 3.89 | IC50 [2]: 13.5 nM
COc1ccc2[nH]cc(CCCNCC3COc4ccccc4O3)c2c1 (centres unmarked) [Example 12, (2.3-Dihydro-benzo[1,4]dioxin-2-ylmethyl)-[3-(5-methoxy-1H-indol-3-yl)-propyl]-amine] | 1.55 | 0.1 | IC50 [2]: 2380 nM
Fc1ccc2[nH]cc(CCCNCC3COc4ccccc4O3)c2c1 (centres unmarked) [Example 13, (2,3-Dihydro-benzo[1,4]dioxin-2-ylmethyl)-[3-(5-fluoro-1H-indol-3-yl)-propyl]-amine] | 8.13 | 0.12 | IC50 [2]: 154 nM
